Results on 19 compounds are retold here after patent US7109193B2, “Tricyclic diazepines tocolytic oxytocin receptor antagonists” (Wyeth, priority 2001, dated 2006).

As a reminder, the inhibition is the drop in the measured response relative to a control, in per cent.

In the assay the target is T1, human vasopressin V2 receptor subtype (Homo sapiens, UniProt P30518).
T1 construct: host or cells: CHO cells (pZeoSV vector)
T1 sequence (P30518 whole entry): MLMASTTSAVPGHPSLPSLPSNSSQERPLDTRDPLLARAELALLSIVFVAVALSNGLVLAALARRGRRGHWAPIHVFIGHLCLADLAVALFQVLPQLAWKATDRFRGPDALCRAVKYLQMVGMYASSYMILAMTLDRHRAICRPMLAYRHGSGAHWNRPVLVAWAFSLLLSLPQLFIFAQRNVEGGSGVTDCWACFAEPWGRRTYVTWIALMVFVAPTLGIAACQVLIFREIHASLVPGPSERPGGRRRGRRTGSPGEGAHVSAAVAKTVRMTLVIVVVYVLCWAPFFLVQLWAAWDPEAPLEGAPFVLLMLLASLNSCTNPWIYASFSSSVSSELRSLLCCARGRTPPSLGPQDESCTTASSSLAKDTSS
In words: Vasopressin binding in Chinese Hamster Ovary cell membranes expressing human vasopressin V2 subtype receptors. To be noted: 100 nM, CHO cell membranes, [3H]arginine vasopressin, values without parentheses. In a few lines: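 Radioligand displacement on membranes from CHO cells stably expressing human V2 receptor, 25 to 50 μg protein/well, in 50 mM Tris-HCl pH 7.4 with MgCl2, BSA and protease inhibitors. [^3H]arginine vasopressin (8 nM working solution) incubated 60 min at room temperature; bound label measured by filtration and scintillation counting.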
For `COc1cc(C(=O)N2Cc3ccc(C(=O)NCCC4CCCN4C)n3Cc3ccccc32)ccc1-n1c(C)ccc1C` (stereo not shown) [Example 315, 10-[4-(2,5-Dimethyl-1H-pyrrol-1-yl)-3-methoxybenzoyl]-N-[2-(1-methyl-2-pyrrolidinyl)ethyl]-10,11-dihydro-5H-pyrrolo[2,1-c][1,4]benzodiazepine-3-carboxamide], the inhibition at 0.1 µM is -4%.

As to `COc1ccccc1-c1ccc(C(=O)N2Cc3ccc(C(=O)N4CCN(C)CC4)n3Cc3ccccc32)cc1OC` [Example 56, {10-[(2,2′-Dimethoxy[1,1′-biphenyl]-4-yl)carbonyl]-10,11-dihydro-5H-pyrrolo[2,1-c][1,4]benzodiazepin-3-yl}(4-methyl-1-piperazinyl)methanone], the inhibition at 0.1 µM came to 27%.

Regarding `CCOc1ccccc1-c1cc(OC)c(C(=O)N2Cc3cccn3Cc3ccccc32)cc1Cl` [Example 17, 10-{[6-Chloro-3-methoxy-2′-ethoxy[1,1′-biphenyl]-4-yl]carbonyl}-10,11-dihydro-5H-pyrrolo[2,1-c][1,4]benzodiazepine], the inhibition at 0.1 µM turned out to be 32%.

For the compound `Cc1cc(C(=O)N2Cc3ccc(C(=O)n4ccnc4)n3Cc3ccccc32)ccc1-c1ccccc1C(F)(F)F` [Example 294, 1H-Imidazol-1-yl(10-{[2-methyl-2′-(trifluoromethyl)[1,1′-biphenyl]-4-yl]carbonyl}-10,11-dihydro-5H-pyrrolo[2,1-c][1,4]benzodiazepin-3-yl)methanone], the inhibition at 0.1 µM is -2%.

As to `COc1ccccc1-c1ccc(C(=O)N2Cc3ccc(C(=O)NCCCN(C)C)n3Cc3ccccc32)cc1C` [Example 72, N-[3-(Dimethylamino)propyl]-10-[(2′-methoxy-2-methyl[1,1′-biphenyl]-4-yl)carbonyl]-10,11-dihydro-5H-pyrrolo[2,1-c][1,4]benzodiazepine-3-carboxamide], the inhibition at 0.1 µM turned out to be 26%.

Take `COc1cc(C(=O)N2Cc3ccc(C(=O)N4CCCN(C)CC4)n3Cc3ccccc32)ccc1-c1ccccc1C` [Example 66, {10-[(2-Methoxy-2′-methyl[1,1′-biphenyl]-4-yl)carbonyl]-10,11-dihydro-5H-pyrrolo[2,1-c][1,4]benzodiazepin-3-yl}(4-methyl-1,4-diazepan-1-yl)methanone]: the inhibition at 0.1 µM worked out at 20%.

For the compound `COc1cc(C(=O)N2Cc3ccc(C(=O)n4ccnc4)n3Cc3ccccc32)ccc1-c1ccccc1C` [Example 290, 1H-Imidazol-1-yl-{10-[(2-methoxy-2′-methyl[1,1′-biphenyl]-4-yl)carbonyl]-10,11-dihydro-5H-pyrrolo[2,1-c][1,4]benzodiazepin-3-yl}methanone], the inhibition at 0.1 µM is -6%.

`COc1cccc(-c2ccc(C(=O)N3Cc4ccc(C(=O)N5CCN(CCCN(C)C)CC5)n4Cc4ccccc43)cc2OC)c1` [Example 255, {10-[(2,3′-Dimethoxy[1,1′-biphenyl]-4-yl)carbonyl]-10,11-dihydro-5H-pyrrolo[2,1-c][1,4]benzodiazepin-3-yl}{4-[3-(dimethylamino)propyl]-1-piperazinyl}methanone]: the inhibition at 0.1 µM was found to be 27%.

Regarding `COc1ccccc1-c1ccc(C(=O)N2Cc3ccc(C(=O)n4ccnc4)n3Cc3ccccc32)cc1OC` [Example 293, {10-[(2,2′-Dimethoxy[1,1′-biphenyl]-4-yl)carbonyl]-10,11-dihydro-5H-pyrrolo[2,1-c][1,4]benzodiazepin-3-yl}(1H-imidazol-1-yl)methanone], the inhibition at 0.1 µM was 3%.

Consider `COc1cc(C(=O)N2Cc3ccc(C(=O)N4CCN(CCCN(C)C)CC4)n3Cc3ccccc32)ccc1-c1cccc2ccccc12` [Example 253, {4-[3-(Dimethylamino)propyl]-1-piperazinyl}{10-[3-methoxy-4-(1-naphthyl)benzoyl]-10,11-dihydro-5H-pyrrolo[2,1-c][1,4]benzodiazepin-3-yl}methanone], for which the inhibition at 0.1 µM is -10%.

In the case of `C=CCN1CCN(C(=O)c2ccc3n2Cc2ccccc2N(C(=O)c2ccc(-n4c(C)ccc4C)c(OC)c2)C3)CC1` [Example 318, (4-Allyl-1-piperazinyl){10-[4-(2,5-dimethyl-1H-pyrrol-1-yl)-3-methoxybenzoyl]-10,11-dihydro-5H-pyrrolo[2,1-c][1,4]benzodiazepin-3-yl}methanone], the inhibition at 0.1 µM was 17%.

Turning to `O=C(c1ccc(-c2ccccc2)nc1)N1Cc2cccn2Cc2ccccc21` [Example 29, (6-Phenyl-pyridin-3-yl)-[10,11-dihydro-5H-pyrrolo[2,1-c][1,4]benzodiazepin-10-yl]methanone], the inhibition at 0.1 µM was determined as 24%.

For the compound `COc1ccccc1-c1ccc(C(=O)N2Cc3ccc(C(=O)N[C@@H]4CN5CCC4CC5)n3Cc3ccccc32)cc1OC` [Example 300, N-[(3S)-1-Azabicyclo[2.2.2]oct-3-yl]-10-[(2,2′-dimethoxy[1,1′-biphenyl]-4-yl)carbonyl]-10,11-dihydro-5H-pyrrolo[2,1-c][1,4]benzodiazepine-3-carboxamide], the inhibition at 0.1 µM was determined as 19%.

In the case of `Cc1cc(C(=O)N2Cc3cccn3Cc3ccccc32)ccc1-c1ccncc1` [Example 31, [3-Methyl-4-(4-pyridinyl)phenyl]-[10,11-dihydro-5H-pyrrolo[2,1-c][1,4]benzodiazepin-10-yl]methanone], the inhibition at 0.1 µM was determined as 31%.

As to `COc1ccccc1-c1ccc(C(=O)N2Cc3ccc(C(=O)N[C@@H](Cc4c[nH]cn4)C(N)=O)n3Cc3ccccc32)cc1OC` [Example 286, N-[(1S)-2-Amino-1-(1H-imidazol-4-ylmethyl)-2-oxoethyl]-10-[(2,2′-dimethoxy[1,1′-biphenyl]-4-yl)carbonyl]-10,11-dihydro-5H-pyrrolo[2,1-c][1,4]benzodiazepine-3-carboxamide], the inhibition at 0.1 µM stood at 27%.

For `COc1ccccc1-c1ccc(C(=O)N2Cc3ccc(C(=O)N[C@H]4CN5CCC4CC5)n3Cc3ccccc32)cc1OC` [Example 299, N-[(3R)-1-Azabicyclo[2.2.2]oct-3-yl]-10-[(2,2′-dimethoxy[1,1′-biphenyl]-4-yl)carbonyl]-10,11-dihydro-5H-pyrrolo[2,1-c][1,4]benzodiazepine-3-carboxamide], the inhibition at 0.1 µM was 22%.

`COc1ccccc1-c1ccc(C(=O)N2Cc3ccc(C(=O)N4CCCN(C)CC4)n3Cc3ccccc32)cc1OC` [Example 69, {10-[(2,2′-Dimethoxy[1,1′-biphenyl]-4-yl)carbonyl]-10,11-dihydro-5H-pyrrolo[2,1-c][1,4]benzodiazepin-3-yl}(4-methyl-1,4-diazepan-1-yl)methanone]: the inhibition at 0.1 µM was 22%.

`Cc1cc(C(=O)N2Cc3cccn3Cc3ccccc32)cc(C)c1-n1c(C)ccc1C` [Example 30, [4-(2,5-Dimethyl-1H-pyrrol-1-yl)-3,5-dimethyl-phenyl][10,11-dihydro-5H-pyrrolo[2,1-c][1,4]benzodiazepin-10-yl]methanone]: the inhibition at 0.1 µM stood at 3%.

In the case of `COc1ccccc1-c1ccc(C(=O)N2Cc3ccc(C(=O)N[C@H]4CN5CCC4CC5)n3Cc3ccccc32)cc1C` [Example 298, N-[(3R)-1-Azabicyclo[2.2.2]oct-3-yl]-10-[(2′-methoxy-2-methyl[1,1′-biphenyl]-4-yl)carbonyl]-10,11-dihydro-5H-pyrrolo[2,1-c][1,4]benzodiazepine-3-carboxamide], the inhibition at 0.1 µM worked out at 29%.
